Experimental data as given in ChEMBL document CHEMBL2331080, “Further characterization of a putative serine protease contributing to the γ-secretase cleavage of β-amyloid precursor protein” (Bioorg Med Chem, 2013).
Each block holds one molecule with its values, some of them ahead of it. Active and inactive are the calls of the source. No cut-off for these calls is given here.

How the values were obtained:
[1] = molecular target: T1, Gamma-secretase (Homo sapiens) (UniProt Q96BI3+Q9NZ42+Q8WW43+P49768+Q92542+P49810); assay: Inhibition of presenilin-dependent gamma secretase complex in HEK293 solubilized membranes using Flag-C100 as substrate assessed as inhibition of amyloid beta40/42 production at 60 uM after 16 hrs by Western blotting analysis; type: cell membranes
[2] = molecular target: T1, Gamma-secretase (Homo sapiens); assay: Inhibition of gamma-secretase-mediated betaAPP K670N/M671L mutant cleavage in HEK293 cells assessed as inhibition of amyloid beta40/42 production at 60 uM after 8 hrs by chemiluminescence assay relative to control; type: cell-based
HEK293 [3] = assay: Cytotoxicity against HEK293 cells overexpressing betaAPP K670N/M671L mutant at 60 uM by LDH release assay; type: cell-based; details: human, hek293, 60 µM
[4] = Half life of the compound in hepes buffer; type: physicochemical
Gamma-secretase = assay: Inhibition of gamma-secretase-mediated betaAPP K670N/M671L mutant cleavage in HEK293 cells assessed as inhibition of amyloid beta40/42 production after 8 hrs by chemiluminescence assay; type: cell-based, Homo sapiens
HEK293 [5] = assay: Cytotoxicity against HEK293 cells overexpressing betaAPP K670N/M671L mutant at 10 to 30 uM by LDH release assay; type: cell-based; details: human, hek293, 30 µM
[6] = molecular target: T1, Gamma-secretase (Homo sapiens); assay: Inhibition of gamma-secretase-mediated betaAPP K670N/M671L mutant cleavage in HEK293 cells assessed as inhibition of amyloid beta40/42 production at 10 to 30 uM after 8 hrs by chemiluminescence assay relative to control; type: cell-based
[7] = molecular target: T1, Gamma-secretase (Homo sapiens); assay: Modulation of gamma-secretase-mediated betaAPP K670N/M671L mutant cleavage in HEK293 cells assessed as inhibition of amyloid beta40/42 production at 10 to 30 uM after 8 hrs by chemiluminescence assay; type: cell-based
[8] = Half life of the compound in buffer; type: physicochemical
[9] = molecular target: T1, Gamma-secretase (Homo sapiens); assay: Modulation of gamma-secretase-mediated betaAPP K670N/M671L mutant cleavage in HEK293 cells assessed as inhibition of amyloid beta40/42 production at 60 uM after 8 hrs by chemiluminescence assay; type: cell-based
HEK293 [10] = assay: Cytotoxicity against HEK293 cells overexpressing betaAPP K670N/M671L mutant at 10 uM by LDH release assay; type: cell-based; details: human, hek293, 10 µM
[11] = molecular target: T2, Proteasome Macropain subunit MB1 (Homo sapiens, UniProt P28074); assay: Inhibition of chymotrypsin-like activity of Proteasome subunit beta 5 (unknown origin) assessed as inhibition of beta-amyloid production by cell-based assay
T2 sequence (P28074 whole entry): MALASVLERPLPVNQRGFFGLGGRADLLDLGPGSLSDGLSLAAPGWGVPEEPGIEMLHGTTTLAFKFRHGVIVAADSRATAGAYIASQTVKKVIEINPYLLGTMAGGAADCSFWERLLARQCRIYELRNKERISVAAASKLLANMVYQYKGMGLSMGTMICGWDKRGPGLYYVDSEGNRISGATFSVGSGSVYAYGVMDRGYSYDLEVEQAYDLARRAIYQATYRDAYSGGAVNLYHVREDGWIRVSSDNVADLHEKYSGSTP

inhibition [1]: inactive | inhibition [2]: inactive
SMILES: CC(C)C[C@H](NC(=O)[C@H](Cc1ccccc1)NC(=O)c1cnccn1)B1O[C@H]2C[C@H]3C[C@H](C3(C)C)[C@@]2(C)O1

inhibition [1]: inactive | inhibition [2]: > 50%
SMILES: CC(C)C[C@@H](NC(=O)[C@H](Cc1ccccc1)NC(=O)c1ccccc1)B(O)O

inhibition [2]: inactive
SMILES: CCOC(=O)Nc1ccc2c(Cl)c(OC)oc(=O)c2c1

inhibition [2]: inactive
SMILES: COc1oc(=O)c2cc(NCCCc3ccccc3)ccc2c1Cl
Activity (HEK293 [3]): Non-toxic

half-life [4]: 3.5 h
SMILES: COc1oc(=O)c2cc(N)ccc2c1Cl

inhibition [2]: inactive
SMILES: C=CCOC(=O)Nc1ccc2c(Cl)c(OC)oc(=O)c2c1

IC50 (Gamma-secretase): 10 µM
SMILES: CCNc1ccc2c(Cl)c(OC)oc(=O)c2c1

inhibition [2]: inactive
SMILES: COc1oc(=O)c2cc(NC(=O)OCc3ccccc3)ccc2c1Cl

IC50 (Gamma-secretase): 10 µM | inhibition [6]: > 50% | inhibition [2]: > 50%
SMILES: COc1oc(=O)c2cc(NCC(C)C)ccc2c1Cl
Activity (HEK293 [5]): Non-toxic

inhibition [6]: > 50% | inhibition [7]: inactive
SMILES: COc1oc(=O)c2cc(NCc3ccc(OCc4ccccc4)cc3)ccc2c1Cl
Activity (HEK293 [5]): Non-toxic

inhibition [2]: > 50%
SMILES: COCCOc1cc2ccc([N+](=O)[O-])cc2c(=O)o1

inhibition [2]: inactive
SMILES: COc1oc(=O)c2cc(NC/C=C\c3ccccc3)ccc2c1Cl
Activity (HEK293 [3]): Non-toxic

IC50 (Gamma-secretase): 10 µM | inhibition [1]: inactive | inhibition [2]: > 50%
SMILES: CC(C)C[C@H](NC(=O)[C@H](Cc1ccccc1)NC(=O)c1ccccc1)B1O[C@H]2C[C@H]3C[C@H](C3(C)C)[C@@]2(C)O1

IC50 (Gamma-secretase): 10 µM | inhibition [6]: > 50% | inhibition [2]: > 50%
SMILES: COc1oc(=O)c2cc(NCc3ccc([N+](=O)[O-])cc3)ccc2c1Cl
Activity (HEK293 [5]): Non-toxic

inhibition [2]: inactive | half-life [8]: < 0.333 h
SMILES: CCC(C)Oc1oc(=O)c2cc([N+](=O)[O-])ccc2c1Cl (centres undefined)

inhibition [2]: inactive
SMILES: COc1oc(=O)c2cc(NCc3ccccc3)ccc2c1Cl
Activity (HEK293 [3]): Non-toxic

inhibition [2]: > 50%
SMILES: COc1oc(=O)c2cc(NCCC(C)C)ccc2c1Cl
Activity (HEK293 [3]): Non-toxic

inhibition [1]: inactive | inhibition [2]: > 50%
SMILES: CC(C)C[C@@H](NC(=O)[C@H](Cc1ccccc1)NC(=O)c1ccccc1)B1O[C@H]2C[C@H]3C[C@H](C3(C)C)[C@@]2(C)O1

SMILES: COc1oc(=O)c2cc(Nc3ccccc3)ccc2c1Cl
Activity (HEK293 [3]): Toxic

inhibition [2]: inactive
SMILES: COc1oc(=O)c2cc(NC(=O)CCCC(=O)O)ccc2c1Cl

inhibition [9]: Active | inhibition [6]: > 50%
SMILES: CCCCCCCCCNc1ccc2c(Cl)c(OC)oc(=O)c2c1
Activity (HEK293 [5]): Non-toxic

inhibition [6]: > 50%
SMILES: COc1oc(=O)c2cc(NCC3CCCCC3)ccc2c1Cl
Activity (HEK293 [5]): Toxic

inhibition [2]: inactive
SMILES: COc1oc(=O)c2cc(NC(C)=O)ccc2c1Cl

inhibition [2]: > 50%
SMILES: COc1oc(=O)c2cc(NCc3cccc4ccccc34)ccc2c1Cl
Activity (HEK293 [3]): Non-toxic

inhibition [2]: > 50%
SMILES: CCCCCCNc1ccc2c(Cl)c(OC)oc(=O)c2c1
Activity (HEK293 [3]): Non-toxic

inhibition [2]: inactive
SMILES: COc1oc(=O)c2cc(NC(=O)OCC3c4ccccc4-c4ccccc43)ccc2c1Cl

inhibition [6]: > 50%
SMILES: CCCCC(CC)CNc1ccc2c(Cl)c(OC)oc(=O)c2c1 (centres undefined)
Activity (HEK293 [5]): Toxic

inhibition [1]: inactive | inhibition [2]: inactive
SMILES: CC(C)C[C@@H](NC(=O)[C@H](Cc1ccccc1)NC(=O)c1cnccn1)B(O)O

inhibition [2]: inactive | half-life [8]: < 0.333 h
SMILES: CCOc1oc(=O)c2cc([N+](=O)[O-])ccc2c1Cl

inhibition [1]: inactive | inhibition [2]: inactive
SMILES: CC(C)C[C@H](NC(=O)[C@H](Cc1ccccc1)NC(=O)c1cnccn1)B(O)O

SMILES: CCC(C)Oc1oc(=O)c2cc(N)ccc2c1Cl (centres undefined)
Activity (HEK293 [3]): Toxic | Activity (HEK293 [10]): Non-toxic

inhibition [2]: inactive
SMILES: COCCOc1cc2ccc(N)cc2c(=O)o1

inhibition [2]: inactive | half-life [8]: < 0.333 h
SMILES: CCCCOc1oc(=O)c2cc([N+](=O)[O-])ccc2c1Cl

inhibition [2]: inactive
SMILES: COc1oc(=O)c2cc(Nc3cccc([N+](=O)[O-])c3)ccc2c1Cl
Activity (HEK293 [3]): Non-toxic

inhibition [2]: inactive
SMILES: COc1oc(=O)c2cc(NC(=O)OC34CC5CC(CC(C5)C3)C4)ccc2c1Cl

inhibition [6]: > 50%
SMILES: COc1oc(=O)c2cc(NCCC(C)(C)C)ccc2c1Cl
Activity (HEK293 [5]): Toxic

inhibition [2]: inactive
SMILES: COc1oc(=O)c2cc(NC(=O)OC(C)(C)C)ccc2c1Cl

inhibition [2]: inactive
SMILES: COc1ccc(CNc2ccc3c(Cl)c(OC)oc(=O)c3c2)cc1
Activity (HEK293 [3]): Non-toxic

SMILES: COc1oc(=O)c2cc(NCC(C)(C)C)ccc2c1Cl
Activity (HEK293 [3]): Toxic

inhibition [2]: inactive
SMILES: COc1cc2ccc(N)cc2c(=O)o1

inhibition [2]: inactive
SMILES: COc1oc(=O)c2cc(NC(=O)C(F)(F)C(F)(F)F)ccc2c1Cl

inhibition [9]: Active
SMILES: COc1cc2ccc([N+](=O)[O-])cc2c(=O)o1

inhibition [6]: > 50% | inhibition [7]: inactive
SMILES: COc1oc(=O)c2cc(NCc3ccccc3[N+](=O)[O-])ccc2c1Cl
Activity (HEK293 [5]): Non-toxic

inhibition [1]: inactive | inhibition [2]: > 50% | IC50 [11]: 0.009 µM
SMILES: CC(C)C[C@H](NC(=O)[C@H](Cc1ccccc1)NC(=O)c1ccccc1)B(O)O

inhibition [2]: > 50%
SMILES: O=c1oc(OCCBr)cc2ccc([N+](=O)[O-])cc12

inhibition [1]: inactive | inhibition [2]: inactive
SMILES: CC(C)C[C@@H](NC(=O)[C@H](Cc1ccccc1)NC(=O)c1cnccn1)B1O[C@H]2C[C@H]3C[C@H](C3(C)C)[C@@]2(C)O1

inhibition [9]: Active
SMILES: COc1oc(=O)c2cc(NC(=O)C(C)(C)C)ccc2c1Cl

inhibition [2]: inactive
SMILES: Nc1ccc2cc(OCCBr)oc(=O)c2c1

half-life [4]: 3.5 h | inhibition [2]: > 50%
SMILES: CCOc1oc(=O)c2cc(N)ccc2c1Cl

SMILES: CCCCOc1oc(=O)c2cc(N)ccc2c1Cl
Activity (HEK293 [3]): Toxic | Activity (HEK293 [10]): Non-toxic

inhibition [2]: inactive
SMILES: COc1oc(=O)c2cc(NC(=O)OCC(Cl)(Cl)Cl)ccc2c1Cl

inhibition [2]: inactive
SMILES: CCCCCCCC(=O)Nc1ccc2c(Cl)c(OC)oc(=O)c2c1

inhibition [6]: > 50% | inhibition [7]: inactive
SMILES: COc1oc(=O)c2cc(NCc3ccc4ccccc4c3)ccc2c1Cl
Activity (HEK293 [5]): Non-toxic
